Measurements from PMC10717410, “TMC4 is a novel chloride channel involved in high-concentration salt taste sensation” (The Journal of Physiological Sciences : JPS, 2021).
Counter-ions that a name gives are not always drawn.

Tests used:
Assay type in all cases: cell-based
mouse TMC4 (mTMC4) [1] = molecular target: T1, mouse TMC4 (mTMC4) (Mus musculus, UniProt Q7TQ65); test: whole-cell patch clamp, transfected HEK293T; conditions: pH 7.4 bath, pH 7.2 pipette, about 25 °C
T1 construct: coding region from circumvallate papillae cDNA in pIRES2-AcGFP1 with IRES and GFP removed; transiently expressed in HEK293T with separate EGFP plasmid
T1 sequence (Q7TQ65 1-694): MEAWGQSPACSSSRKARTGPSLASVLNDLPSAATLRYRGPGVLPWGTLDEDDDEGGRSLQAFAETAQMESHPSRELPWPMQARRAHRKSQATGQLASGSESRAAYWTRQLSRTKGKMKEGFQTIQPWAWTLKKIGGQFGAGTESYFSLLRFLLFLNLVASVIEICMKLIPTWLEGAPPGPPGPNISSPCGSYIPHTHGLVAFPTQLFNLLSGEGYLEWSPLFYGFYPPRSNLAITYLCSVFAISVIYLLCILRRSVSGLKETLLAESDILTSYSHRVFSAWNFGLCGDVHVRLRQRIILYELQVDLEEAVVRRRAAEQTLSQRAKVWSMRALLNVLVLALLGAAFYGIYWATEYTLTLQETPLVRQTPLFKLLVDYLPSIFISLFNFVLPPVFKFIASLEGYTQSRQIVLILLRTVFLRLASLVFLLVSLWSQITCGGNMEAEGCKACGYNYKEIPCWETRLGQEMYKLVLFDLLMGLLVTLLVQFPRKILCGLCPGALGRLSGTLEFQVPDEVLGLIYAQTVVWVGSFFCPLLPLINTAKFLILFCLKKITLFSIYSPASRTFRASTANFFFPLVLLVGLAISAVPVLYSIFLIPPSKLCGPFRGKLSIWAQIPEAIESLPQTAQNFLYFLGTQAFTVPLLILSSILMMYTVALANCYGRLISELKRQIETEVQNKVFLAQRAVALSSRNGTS

human TMC4 (hTMC4) = molecular target: T2, human TMC4 (hTMC4) (Homo sapiens, UniProt Q7Z404); test: whole-cell patch clamp, step pulses, transfected HEK293T; conditions: pH 7.4 bath, pH 7.2 pipette, about 25 °C; channel blocker
T2 construct: coding region of purchased cDNA (Dharmacon) in pIRES2-AcGFP1 with IRES and GFP removed; transiently expressed in HEK293T
T2 sequence (Q7Z404 1-712): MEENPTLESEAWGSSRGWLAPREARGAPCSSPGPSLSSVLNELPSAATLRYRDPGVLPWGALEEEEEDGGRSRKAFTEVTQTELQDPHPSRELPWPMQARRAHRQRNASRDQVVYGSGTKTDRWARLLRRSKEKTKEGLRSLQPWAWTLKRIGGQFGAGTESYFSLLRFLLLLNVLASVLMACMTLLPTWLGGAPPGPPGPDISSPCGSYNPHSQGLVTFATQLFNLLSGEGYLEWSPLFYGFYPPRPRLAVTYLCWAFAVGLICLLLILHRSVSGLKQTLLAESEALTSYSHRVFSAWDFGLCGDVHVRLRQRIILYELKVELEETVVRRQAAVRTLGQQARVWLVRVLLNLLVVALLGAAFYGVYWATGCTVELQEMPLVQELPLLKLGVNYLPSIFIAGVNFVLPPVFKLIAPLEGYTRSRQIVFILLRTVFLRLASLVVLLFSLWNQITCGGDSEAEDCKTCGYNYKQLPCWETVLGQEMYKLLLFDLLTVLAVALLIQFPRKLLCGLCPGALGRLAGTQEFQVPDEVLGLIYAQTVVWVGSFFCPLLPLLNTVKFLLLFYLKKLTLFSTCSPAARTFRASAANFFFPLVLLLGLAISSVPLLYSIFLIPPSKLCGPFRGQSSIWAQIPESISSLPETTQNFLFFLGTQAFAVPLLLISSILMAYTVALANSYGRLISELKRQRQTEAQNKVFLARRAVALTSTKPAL

mouse TMC4 (mTMC4) [2] = molecular target: T1, mouse TMC4 (mTMC4); test: as above; conditions: NMDG-Cl pipette, pH 7.4 bath, pH 7.2 pipette, about 25 °C, channel blocker
mouse TMC4 (mTMC4) [3] = molecular target: T1, mouse TMC4 (mTMC4); test: whole-cell patch clamp, bath chloride fully replaced by gluconate; conditions: permeating anion; NMDG-Cl pipette; pH 7.4 bath, about 25 °C

Structure (SMILES): CC(C)(C)C1CCc2c(sc(NC(=O)c3ccco3)c2C(=O)O)C1 (centres unmarked) [CaCC(inh)-A01]
- Iblocker/Icontrol at + 60 mV (mouse TMC4 (mTMC4) [1]): mTMC4-mediated currents were inhibited by CaCC(inh)-A01

Structure (SMILES): CNCCC(Oc1ccc(C(F)(F)F)cc1)c1ccccc1 (centres unmarked) [Fluoxetine hydrochloride]
- Iblocker/Icontrol at + 60 mV (mouse TMC4 (mTMC4) [1]; 100 μM compound): Fluoxetine hydrochloride and tannic acid also inhibited mTMC4-mediated currents

Structure (SMILES): O=C(O)c1cc([N+](=O)[O-])ccc1NCCCc1ccccc1 [NPPB, 5-nitro-2-(3-phenylpropylamino) benzoic acid]
- current reduction (human TMC4 (hTMC4)): hTMC4) also functions as a Cl^− channel with a similar voltage dependency and is inhibited by NPPB
- Iblocker/Icontrol at + 60 mV (mouse TMC4 (mTMC4) [2]): mTMC4-mediated currents were strongly inhibited by the NPPB

Structure (SMILES): O=C(O)[C@H](O)[C@@H](O)[C@H](O)[C@H](O)CO [gluconate]
- whole-cell patch clamp, bath chloride fully replaced by gluconate (mouse TMC4 (mTMC4) [3]): outward currents did not disappear even when the bath solution was completely substituted with Na-gluconate
